US5219841A, “Treatment of arrhythmia by administration of Ap4 A” (Fujirebio, Inc., priority 1989, dated 1993)
“Also recorded” adds a separate entry of the source.

Assays:
[1] = system: hepatocytes; settings: Rapaport and Zamecnick 1976; cited from earlier work
[2] = system: platelet aggregation; assay: Platelet aggregation by the drug itself in absence of ADP; type: cell-based, rabbit
[3] = system: adenosine diphosphate (ADP)-stimulated human platelet aggregation; settings: Luthje and Ogiluie 1984; cited from earlier work
[4] = system: ouabain-induced cardiac arrhythmia; assay: Ouabain-induced arrhythmia model; type: in vivo, guinea pig
Method: With a guinea pig (b.w. 450 g) placed under urethane anesthesia (1.1 g/kg), its femoral vein, jugular vein and carotid artery were cannulated. Ap4 A, ATP or disopyramide was injected into the femoral vein and ouabain into the jugular vein through each cannula, while the carotid artery was utilized for a blood pressure monitoring. Changes associated with the administration of the drug were assessed by monitoring electrocardiogram (ECG), blood pressure, mean blood pressure and heart rate (Nihon Kohden Co.; Models AB620G, AP601G and AT601G). ECG was recorded in accordance with the lead II.
Ouabain-induced cardiac arrhythmia model was prepared by continuous infusion of ouabain at a rate of 7 μg/kg/min via the jugular vein. Each drug was administered by intravenous infusion over a period of 5 minutes at the following dose: ATP, 10 or 30 mg/kg; Ap4 A, 30 mg/kg; and disopyramide, 5 mg/kg. The drug was administered simultaneously with the infusion of ouabain. The antiarrhythmic effect of the drug tested was assessed in terms of the total dose of ouabain given until onset of each of the following parameters: P-P interval prolongation, T-P overlapping, ventricular arrhythmia, ventricular fibrillation and cardiac arrest.

[5] = system: baby hamster kidney cells; settings: Grummt 1978; cited from earlier work
[6] = system: guinea pig right atrium; assay: Effect on heart rate of isolated guinea pig right atrium
Method: A guinea pig (b.w. 450 g) was stunned and was immediately removed its heart to excise the right atrium therefrom. The right atrium was then suspended in a Magnus tube (30 ml) filled with Krebs-Henseleit (KH) solution which was maintained at 31° C. constantly aerating with a mixture of 95% O2 --5% CO2 therein. After the KH solution was changed with the fresh one at 15-minutes intervals and the heart rate of the right atrium was stabilized in 60-90 minutes, Ap4 A or ATP which was prepared at different concentrations was added to the KH solution in a single dose to determine the change of heart rate. Drug concentrations of 10^-4, 10^-5, 10^-6 and 10^-7 M were employed in this experiment. The heart rate was determined with a cardiotachometer (Nihon Kohden Co.; Model AT601G; Japan) and an isometric converter (Nihon Kohden Co.; Model TB-651T), with a 1-g weight load.

[7] = system: rabbit mesenteric artery; settings: Busse et al. 1988; cited from earlier work
[8] = Half lethal dose, Lichfield-Wilcoxon method; settings: in vivo, iv, rat
From the text: Ap4 A is a novel type of nucleotide discovered in human platelets in a recent year and has the following chemical structure: [drawing 1] The active ingredient Ap4 A of the pharmaceutical composition according to the present invention is thus preferably in a form of a pharmaceutically acceptable salt thereof such as sodium salt, or it may be in a form of free acid thereof. Ap4 A can be produced by a conventional organic synthesis or by an enzymatic synthesis with, for example, leucyl tRNA synthetase derived from thermophilic Bacillus stearothermoohillus (Japanese Patent Application Laid-Open (KOKAI) No. 62-278992; U.S. Pat. NO. 4886749; EP-A-247819), using ATP as the starting material in either method. […] J. Physiol., 254, 828-832 (1988)].

[9] = system: ADP-induced platelet aggregation; assay: ADP-induced platelet aggregation in platelet-rich plasma; type: cell-based, rabbit; settings: ADP 5 μM
Method: Blood was collected from the carotid artery of an unanesthetized rabbit into a syringe containing one volume of 3.8% sodium citrate per nine volumes of blood. The citrated blood was centrifuged at 1100 rpm for 15 minutes, and the supernatant was obtained as platelet-rich plasma (PRP). To 200 μl of PRP in an aggregometer, 10 μl of ATP or Ap4 A solution was added and the mixture was incubated at 37° C. for 10 minutes, followed by addition of 10 μl of 0.1 mM ADP solution (final concentration: 5μM) to induce and measure the aggregation of platelets. Results obtained for ATP are shown in FIG. 5A and those for Ap4 A in FIG. 5B.

[10] = system: adrenaline-induced cardiac arrhythmia; assay: Adrenaline-induced arrhythmia model; type: in vivo, guinea pig
Method: With a guinea pig (b.w. 450 g) placed under urethane anesthesia (1.1 g/kg), its femoral vein, jugular vein and carotid artery were cannulated. Ap4 A, ATP or propranolol was injected into the femoral vein and adrenaline into the jugular vein through each cannula, while the carotid artery was utilized for a blood pressure monitoring. Changes associated with the administration of the drug were monitored in the same manner as above (B), and ECG was recorded in accordance with the lead II.
Adrenaline-induced cardiac arrhythmia model was prepared by injecting adrenaline (10 μg/kg) into the jugular vein over 5 seconds. Each drug was administered by intravenous infusion over a period of 5 minutes at the following dose: ATP, 3 or 10 mg/kg; Ap4 A, 3 or 10 mg/kg; propranolol, 1 mg/kg. Adrenaline was administered in a single dose 4 minutes after administration of the drug tested. The grading of arrhythmia was assessed in terms of the incidence of extrasystole.

[11] = system: guinea pig heart; assay: Coronary vasodilative effect, Langendorff perfusion of isolated heart
Method: An experiment was performed by a modification of the method of Aronson and Serlick [Toxicol. Appl. Pharmac., 38, 479-488 (1976) and 39, 157-176 (1977); Biochem. Pharmac. 26, 2297-2305 (1977)]. The guinea pig heart removed was started perfusing at the origin of the aorta by the Langendorff perfusion method. Perfusion was carried out at 37° C. and 14 ml/min of flow rate with a peristalic pump (TAIYO TYPE 1500N; Japan) in Krebs-Henseleit solution (KH: NaCl, 118 mM; phosphate, 1.2 mM; NaHCO3, 25 mM; glucose, 10 mM; KCl, 4.7 mM; CaCl2, 2.5 mM; and MgSO4, 1.2 mM; pH 7.4; bubbling with 95% O2 - 5% CO2). After the initiation of the perfusion, an incision was made in the left auricle and a cannula was inserted into the left ventricle via the left atrium to measure the left ventricular pressure with a pressure transducer (Nihon Kohden Co.; Model TP-200T). The differential value of the left ventricular pressure (dp/dt) was measured with a cardiotachometer (Nihon Kohden Co.; Model AT-601G). The perfusion pressure was determined with a pressure transducer connected to the aortic cannula. Ap4 A was dissolved in KH at various concentrations and administered to the perfusion system in a single dose of 1-100 μg/0.1 ml/5 sec or by a continuous infusion of 1-100 μg/5ml/15 min.

[12] = single dose 1-100 μg/0.1 ml/5 sec

## Nc1ncnc2c1ncn2[C@@H]1O[C@H](COP(=O)(O)OP(=O)(O)OP(=O)(O)OP(=O)(O)OC[C@H]2O[C@@H](n3cnc4c(N)ncnc43)[C@H](O)[C@@H]2O)[C@@H](O)[C@H]1O [Ap4 A, diadenosine 5',5'''-P^1,P^4 -tetraphosphate]
[1]
  growth of hepatocytes: promotion of the growth of hepatocytes
[2]; 3×10^-5 M or more, absence of ADP
  platelet aggregation by the drug itself: did not cause platelet aggregation at all
[2]; even at 3×10^-4 M
  platelet aggregation by the drug itself: no activity of platelet aggregation; also recorded: no effect of the platelet aggregation
[3]
  effect on ADP-stimulated human platelet aggregation: inhibitory effect
[4]; 30 mg/kg i.v., same dose of ATP
  antiarrhythmic effect compared with ATP: practically the same as that of ATP, or slightly lower; also recorded: virtually comparable with or slightly inferior to that of ATP
[4]; i.v. infusion over 5 min: ATP 10 or 30 mg/kg, Ap4 A 30 mg/kg, disopyramide 5 mg/kg, ouabain 7 μg/kg/min
  antiarrhythmic effect: onset of P-P interval prolongation, T-P overlapping, ventricular arrhythmia, ventricular fibrillation and cardiac arrest: inhibited the onsets of such parameters as P-P interval prolongation, T-P overlapping, ventricular arrhythmia, ventricular fibrillation and cardiac arrest; also recorded: inhibited all these parameters
[5]
  DNA synthesis: enhancement of DNA synthesis
[6]; 10^-4 M
  relative potency vs ATP (change of heart rate): 2.1 -fold
[6]; 10^-5 M
  relative potency vs ATP (change of heart rate): 1.5 -fold
[6]; 10^-6 M
  relative potency vs ATP (change of heart rate): 1.5 -fold
[6]; in words
  potency compared with ATP (percent change of heart rate): prone to be more potent than ATP; also recorded: tends to be greater than that of ATP
[6]; single dose, 10^-7 to 10^-4 M, KH solution, 31° C.
  change of heart rate (bradycardic effect): reduced the heart rate with a dose-dependency; also recorded: decreased the atrial heart rate with a dose-dependency
[7]
  vasodilative action: vasodilative action
[8]
  LD50: 102 mg/kg
[9]; 3×10^-5 M to 3×10^-4 M, in words
  inhibition of ADP-induced platelet aggregation: markedly inhibited ADP-induced platelet aggregation with a dose-dependency; also recorded: inhibited by Ap4 A with a dose-dependency
[9]; Oryctolagus cuniculus, Platelet, 3×10^-4 M, rabbit PRP, 37° C., 10 min preincubation, vs control
  inhibition at 300 µM: 76%
[9]; Oryctolagus cuniculus, Platelet, 3×10^-5 M, rabbit PRP, 37° C., 10 min preincubation, vs control
  inhibition at 30 µM: 21%
[10]; 10 mg/kg/5min i.v., adrenaline 10 μg/kg, control value 39%
  incidence of extrasystole: 8.0%
[10]; i.v. infusion over 5 min: ATP 3 or 10 mg/kg, Ap4 A 3 or 10 mg/kg, propranolol 1 mg/kg
  antiarrhythmic effect (reduction of incidence of extrasystole): reduced the incidence of extrasystole with a dose-dependency; also recorded: dose-dependent reduction of the incidence of extrasystole
[10]; i.v., incidence of extrasystole
  antiarrhythmic effect compared with ATP: somewhat inferior to that of ATP; also recorded: somewhat weaker than that of ATP
[11]; continuous infusion 1-100 μg/5ml/15 min
  perfusion pressure and left ventricular pressure: the perfusion pressure and the left ventricular pressure decreased depending on the dose of Ap4 A
[11]; e.g.
  dose showing coronary vasodilative effect without affecting heart rate or left ventricular pressure: 1 µg
[11]; [12]
  heart rate: marked decrease of heart rate
  left ventricular pressure: fell transiently after administration and subsequently it was elevated
  perfusion pressure: dose-dependent fall of perfusion pressure; also recorded: observed from the lowest dose of Ap4 A
[11]; single or continuous dose
  perfusion pressure (coronary vasodilative activity): the perfusion pressure decreased depending on the dose
